No end group written: not given here. KLH = keyhole limpet hemocyanin
Key:
human αSyn = assay: Antibody-inducing ability in mice: ELISA antibody titer of immune serum with respect to human αSyn; format: in vivo, mouse
Procedure, shortened: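 Female balb/c mice, 6 weeks old, immunized i.m. twice 2 weeks apart with peptide conjugates (250 μg/mouse; KLH-DMPVDPDN 25 μg/mouse) plus Alum 50 μg/mouse. Serum taken 2 weeks after second dose. IgG titer measured by ELISA on human αSyn (0.2 μg/well) or aggregated αSyn (15 ng/well), A450; titers expressed as log relative to control conjugate.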

aggregated human αSyn = aggregated human αSyn (Homo sapiens, UniProt P37840); assay: Aggregated human αSyn-neutralizing effect of antibody induced in mice: phosphorylation of human αSyn in SH-SY5Y cells; format: cell-based; design: purchased Stress Marq (StressMarq Biosciences Inc.); conditions: antibody (100 μg/mL) induced in C57BL/6 mice by the vaccine; FIG. 1B, isotype control = 100
Method: The aggregated human αSyn-neutralizing effect of the antibody induced in the mice by the AJ-human αSyn peptide conjugate (AJ-p54) produced in Example 1 was evaluated. Physiological saline or the AJ-human αSyn peptide conjugate (250 μg/mouse) was intramuscularly administered to C57BL/6 mice (males, 6 weeks old, CLEA Japan, Inc.) four times at a 2-week interval using CFA (DIFCO) as an adjuvant. Furthermore, KLH-DMPVDPDN (25 μg/mouse) was administered using Alum (InvivoGen, 50 μg/mouse) as an adjuvant. Two weeks after the fourth administration, serum was recovered. After recovering the antibodies comprised in the serum by Protein G HP SpinTrap (Cytiva), the human αSyn- and aggregated human αSyn-neutralizing effect was evaluated by a method described below.
As the human αSyn- and aggregated human αSyn-neutralizing effect, the influence on phosphorylation of human αSyn in SH-SY5Y cells (ATCC) was evaluated. The SH-SY5Y cells were seeded in a 96-well plate at 2×10^4 cells/well and cultured under the conditions of 37° C. and 5% CO2. […] After fixing the cells with a 4% paraformaldehyde/phosphate buffer solution (FUJIFILM Wako Pure Chemical Corporation), phosphorylated human αSyn was stained with a fluorescence-labeled anti-phosphorylated αSyn antibody (Cell Signaling). The amount of phosphorylated human αSyn was evaluated by image analysis using ArrayScan (Thermo Fisher Scientific Inc.). […]

Phosphorylation of human αSyn in SH-SY5Y cells to which aggregated human αSyn was added (aggregated human αSyn): inhibited
Substance: KLH-C-DMPVDPDN ({KLH}-CDMPVDPDN) [KLH-DMPVDPDN, comparison vaccine, reference compound]
Induction of the antibody to human αSyn in the mouse serum (in words) (human αSyn; Example 2, balb/c mice): induction of the antibody to human αSyn was also confirmed | Antibody titer with respect to human αSyn (N = 4 − 6, mean ± standard deviation) (human αSyn; Example 2, balb/c mice, i.m. twice at 2-week interval, Alum, AJ conjugates 250 μg/mouse, KLH-DMPVDPDN 25 μg/mouse, serum 2 weeks after second administration): 5461 ± 2365 | Induction of the antibody to human αSyn (in words) (human αSyn; Example 4, balb/c mice): induced the antibody to human αSyn | Antibody titer with respect to human αSyn (mean ± standard deviation) (human αSyn; Example 4, balb/c mice, i.m. twice at 2-week interval, Alum, AJ conjugates 250 μg/mouse, KLH-DMPVDPDN 25 μg/mouse): 1792 ± 1536

Source: patent US20240270801A1, “EPITOPE PEPTIDE OF HUMAN ALPHA-SYNUCLEIN AND PHARMACEUTICAL COMPOSITION INCLUDING SAID PEPTIDE” (Sumitomo Pharma Co., Ltd., priority 2021, published 2024)
